# According to patent US4898863A, “Heterocyclic carboxamides” (ICI Americas Inc., priority 1986, dated 1990):
# Key:
# [1] = overt toxicity / untoward side-effects in dosed laboratory animals; format: in vivo, guinea-pig
# leukotriene LTD4 = test: in vivo guinea-pig aerosol test (leukotriene LTD4 challenge, time of onset of breathing changes); conditions: Cavia porcellus, oral, read-out: effective dose following oral administration
smiles,measurement,setting,value
"COc1cc(C(=O)NS(=O)(=O)c2ccccc2C)ccc1Cn1cc(CCC(=O)N2CCCC2)c2ccc(C(=O)NCC3CCCC3)cc21 [Example 8, N-[4-[6-(N-Cyclopentylmethylcarbamoyl)-3-[2-(pyrrolidinocarbonyl)ethyl]indol-1-ylmethyl]-3-methoxybenzoyl]-2-methylbenzesulphonamide]",oral dose showing no sign of overt toxicity,[1],30 mmol/kg
same,minimal effective dose,leukotriene LTD4,2000 µmol/kg
